Like-named read-outs stand apart in the source and are kept apart here.
Legend:
[1] = Nasal administration of diazepam and midazolam preparations in two healthy volunteers; conditions: for Nasal Discomfort / Nasal Discomfort (maximum): subject self-rating, IN 5 mg dose, n = 2
Description: Approximately 0.5 ml (2.5 mg) was dripped into each nostril over a period of 30 seconds.

[2] = cited from earlier work
[3] = rectal, published data (Cloyd et al, Epilepsia 1998); cited from earlier work
[4] = DZP permeation through blank filter; conditions: S from 1 to 6, 30/70 GF/AB vehicle, blank filters
[5] = Diffusion studies through silicone membranes (Franz diffusion cell); conditions: for Steady State Flux / Time Lag / Transference: 75 μm silicone membrane
[6] = Comparison of intranasal with published rectal diazepam concentration-time course
[7] = system: patients with SE; conditions: intravenous, given within 30 minutes of the onset of SE; cited from earlier work
[8] = in vivo; cited from earlier work
[9] = Lipid-solubility (octanol/water ratio) of benzodiazepines; conditions: from Table 1
[10] = clinical; conditions: human, plasma, inhaled or intranasal, 5 mg
[11] = cited from earlier work; remark: listed apart in the source
[12] = system: MDCKII-WT cells
Description: (§1) Maden Darby Canine Kidney II wild type (MDCKII-WT) cells were seeded at 43,000 cells/cm^2 on six-well polyester membrane inserts (Transwell®) with a pore size of 0.4 μm. Cells were maintained in Dulbecco's modified Eagle's medium supplemented with 10% fetal bovine serum and 1% penicillin and streptomycin at 37° C. in a humidified incubator with 5% CO2. Media were changed every other day, and cell monolayers were cultured for 4 days before use.
Viability of MDCKII-WT cells was measured by incubating the cells in suspension for 30, 60, and 120 min in various GF/buffer compositions at 37° C. Trypan blue dye was then added into the cell suspension, and incubated for 10 min. A sample was drawn from the suspension and spread on a hemocytometer, and counts of live (transparent) and dead (blue) cells were made.

[13] = system: MDCKII-WT cell monolayer; conditions: 0-50% GF with assay buffer, over 30 min
Description: as §1

[14] = system: MDCKII-WT cell monolayer
[15] = system: MDCKII-WT cell monolayer; conditions: GF 0 to 50 vol % in upstream vehicle
[16] = human, blood, other: intranasal, 5 mg
[17] = buccal, 5 mg commercial parenteral MDZ, 8 healthy volunteers

CN1C(=O)CN=C(c2ccccc2)c2cc(Cl)ccc21 [DZP, diazepam]
Nasal Discomfort [1]: 1.5 | Nasal Discomfort (maximum) [1]: 6.8 | time to peak concentrations ([2]; rectal, adults): 15 to 45 min | time to peak concentrations ([2]; rectal, children): 5 to 10 min | time to maximum concentration [3]: 45 min | steady state flux as a function of degree of saturation S [4]: increased linearly with increasing degree of saturation | steady state flux as a function of degree of saturation S ([5]; S=0.5-6.25, 50:50 GF/water, silicone membrane): increased nearly linearly with increasing degree of saturation | Steady State Flux ([5]; S=1, 30% GF): 0.823 ± 0.030 μg/(cm^2 · min) | Time Lag ([5]; S=1, 30% GF): 1.876 ± 0.165 min | Transference ([5]; S=1, 30% GF): 0.823 ± 0.030 μg/(cm^2 · min) | Steady State Flux ([5]; S=1, 40% GF): 0.826 ± 0.019 μg/(cm^2 · min) | Time Lag ([5]; S=1, 40% GF): 1.793 ± 0.020 min | Transference ([5]; S=1, 40% GF): 0.826 ± 0.019 μg/(cm^2 · min) | Steady State Flux ([5]; S=1, 50% GF): 0.824 ± 0.011 μg/(cm^2 · min) | Time Lag ([5]; S=1, 50% GF): 1.842 ± 0.119 min | Transference ([5]; S=1, 50% GF): 0.824 ± 0.011 μg/(cm^2 · min) | Steady State Flux ([5]; S=3, 30% GF): 2.309 ± 0.070 μg/(cm^2 · min) | Time Lag ([5]; S=3, 30% GF): 1.806 ± 0.135 min | Transference ([5]; S=3, 30% GF): 0.770 ± 0.023 μg/(cm^2 · min) | Steady State Flux ([5]; S=3, 40% GF): 2.310 ± 0.055 μg/(cm^2 · min) | Time Lag ([5]; S=3, 40% GF): 1.787 ± 0.091 min | Transference ([5]; S=3, 40% GF): 0.770 ± 0.018 μg/(cm^2 · min) | Steady State Flux ([5]; S=3, 50% GF): 2.321 ± 0.095 μg/(cm^2 · min) | Time Lag ([5]; S=3, 50% GF): 1.755 ± 0.134 min | Transference ([5]; S=3, 50% GF): 0.774 ± 0.032 μg/(cm^2 · min) | time to maximum concentration ([6]; nasal, 5 mg): 28 min | peak concentration ([6]; rectally, published data adjusted from 15 mg to 5 mg assuming linear pharmacokinetics): 128 ng/mL

O=C1Nc2ccc(Cl)cc2C(c2ccccc2Cl)=NC1O (stereo not shown) [LZP, lorazepam]
effective in patients [7]: 60-80% | Elimination T½ [8]: 480 to 1500 min | First-pass Effect [8]: Low | time of peak plasma concentrations ([2]; rectal): 75 min | lipid-solubility relative to DZP and MDZ [9]: ⅕

Cc1ncc2n1-c1ccc(Cl)cc1C(c1ccccc1F)=NC2 [MDZ, midazolam]
nasal discomfort (in words) ([1]; IN commercial formulations: DZP solvents 40% propylene glycol and 10% ethanol, MDZ pH=3): significant discomfort | Tmax [1, 16]: 20 min | bioavailability [1, 16]: 67.5% | Nasal Discomfort [1]: 1.0 | Nasal Discomfort (maximum) [1]: 6.0 | Cmax [10]: 64.6 ng/mL | bioavailability [10]: 97.9% | Lipid-solubility (Octanol/Water Ratio) ([11]; at pH = 3): at pH = 3: 34 | Lipid-solubility (Octanol/Water Ratio) ([11]; at pH = 7.5): at pH = 7.5: 475 | Elimination T½ [8]: 30 to 240 min | First-pass Effect [8]: High | time to pharmacological effect comparable to IV diazepam ([2]; IM injection): ≤ 15 minutes | time to peak serum concentrations ([2]; IM): 20 to 30 min | average bioavailability [2, 17]: 75% | time to peak serum concentrations [2, 17]: 15 to 90 min | bioavailability ([2]; rectal): 15-30 % of a dose

tetrahydrofurfuryl alcohol polyethyleneglycol ether [GF]
viable cells ([12]; 30 min treatment, GF up to 50 vol %): more than 90% | cell viability ([12]; 1 h exposure, GF compositions above 30%): marked decease in cell viability | lethality ([12]; 2 h exposure, GF compositions equal to or more than 20%): 100% | TEER values [13]: > 100 Ω·cm2 | effect of GF content on permeability of mannitol ([14]; GF/AB cosolvent mixtures, 0 to 50 vol % GF): permeability of mannitol increases | percentage mass transported of mannitol ([14]; all GF/AB cosolvent systems (0-50 vol % GF), t=30 min): below 5% | effect of GF content on transference of DZP through MDCK cell monolayer [15]: transference increased with increasing GF content

Source: patent US20070208011A1, “Supersaturated Benzodiazepine Solutions and Their Delivery” (priority 2005, published 2007)
